From patent US20250144067A1, “PERSONALIZED STARVATION THERAPY FOR CANCER” (Faeth Therapeutics, Inc., priority 2021, published 2025)
Where a name gives a salt, the structure may show the parent alone. Read-outs that look alike come from different tables or passages of the source.

Columns and labels:
[1] = tested on: NCI-H292 lung cancer cells; assay: FDA drug screening, complete media vs cholesterol-free media with simvastatin (TABLE 2); type: cell-based, human
[2] = tested on: NCI-H292 lung cancer cells; assay: FDA drug screening, complete media vs cholesterol-free media without statin (TABLE 1); type: cell-based, human
[3] = NCI-H292 cells, FDA drug library screen, cholesterol-free media with simvastatin 0.04 μM
[4] = complete media minus cholesterol-free media + simvastatin, >0 enhanced anti-cancer activity, about 0 neutral, <0 antagonist
[5] = NCI-H292 cells, cholesterol-free media without statin
[6] = complete vs cholesterol-free media, greater than 0 enhanced anti-cancer activity, about 0 neutral, below 0 antagonists
[7] = NCI-H292 cells, cholesterol-free media with simvastatin 0.04 μM, FDA drug library screen (TABLE 2)
[8] = NCI-H292 cells, complete media, FDA drug library screen (TABLE 2)
[9] = complete media minus cholesterol-free media + simvastatin (0.04 μM), >0 enhanced anti-cancer activity, about 0 neutral, <0 antagonist
[10] = Complete minus Cholesterol-free, >0 enhanced anti-cancer activity, about 0 neutral, <0 antagonist
[11] = NCI-H292 cells, FDA drug library screen, complete media
[12] = NCI-H292 cells, cholesterol-free media without statin, FDA drug library screen
[13] = NCI-H292 cells, complete media, FDA drug library screen
[14] = complete vs cholesterol-free media, >0 enhanced anti-cancer activity, about 0 neutral, <0 antagonist
[15] = complete media vs cholesterol-free media + simvastatin (0.04 μM), >0 enhanced anti-cancer activity, about 0 neutral, <0 antagonist
[16] = Complete minus Cholesterol-free, greater than 0 enhanced anti-cancer activity, about 0 neutral, below 0 antagonists
[17] = NCI-H292 cells in cholesterol-free media without statin
[18] = NCI-H292 cells in complete media

Question: For `OCCOCCN1CCN(C(c2ccccc2)c2ccc(Cl)cc2)CC1` (stereo not shown) [Hydroxyzine (dihydrochloride)], which “Cholesterol-free media + simvastatin (0.04 μM)” value [1, 3] is on record?
Answer: The value was 0.6407.

Question: What about the Difference [1, 4] of the same molecule?
Answer: Its Difference is 0.53.

Question: What about the Cholesterol-free [2, 5] of the same molecule?
Answer: Its Cholesterol-free is 1.474.

Question: What about the Complete ([2]; NCI-H292 cells, complete media) of the same molecule?
Answer: Its Complete is 1.128.

Question: And the Difference [2, 6]?
Answer: The Difference was −0.35.

Question: Which “Cholesterol-free media + simvastatin (0.04 μM)” value [1, 7] does the source give for `O=C1CN(/N=C/C=C/c2ccc([N+](=O)[O-])o2)C(=O)N1` [Furagin] here?
Answer: Its value is 1.137.

Question: What about the “Complete Media” value [1, 8] of the same molecule?
Answer: The value was 1.079.

Question: What about the Difference [1, 9] of the same molecule?
Answer: Its Difference is −0.06.

Question: What about the Difference [2, 10] of the same molecule?
Answer: Its Difference is −0.23.

Question: And the Cholesterol-free [2, 5]?
Answer: The Cholesterol-free was 1.216.

Question: And the Complete ([2]; NCI-H292 cells, complete media)?
Answer: The Complete was 0.9861.

Question: Which “Cholesterol-free media + simvastatin (0.04 μM)” value [1, 3] does the source give for `CCN1CCN(C(=O)N[C@@H](C(=O)N[C@@H]2C(=O)N3C(C(=O)O)=C(CSc4nnnn4C)CS[C@H]23)c2ccc(O)cc2)C(=O)C1=O` [Cefoperazone] here?
Answer: Its value is 1.061.

Question: And the “Complete Media” value [1, 11]?
Answer: Its value is 1.748.

Question: What about the Difference [1, 4] of the same molecule?
Answer: The Difference was 0.69.

Question: And the Cholesterol-free [2, 12]?
Answer: Its Cholesterol-free is 0.8233.

Question: What about the Complete [2, 13] of the same molecule?
Answer: The Complete was 1.132.

Question: What about the Difference [2, 14] of the same molecule?
Answer: The Difference was 0.31.

Question: Which results are given for Afatinib (dimaleate)?
Answer: Cholesterol-free media + simvastatin (0.04 μM) [1, 3]: 0.4722; Complete Media [1, 11]: 0.3193; Difference [1, 15]: −0.15; Difference [2, 10]: 0.03; Cholesterol-free [2, 12]: 0.07869; Complete [2, 13]: 0.1056

Question: For `O=C(c1ccc(OCCN2CCCCC2)cc1)c1c(-c2ccc(O)cc2)sc2cc(O)ccc12` [Raloxifene (hydrochloride)], which “Cholesterol-free media + simvastatin (0.04 μM)” value [1, 3] is on record?
Answer: Its value is 0.3884.

Question: And the “Complete Media” value [1, 11]?
Answer: The value was 0.7486.

Question: What about the Difference [1, 4] of the same molecule?
Answer: The Difference was 0.36.

Question: What about the Cholesterol-free [2, 12] of the same molecule?
Answer: The Cholesterol-free was 0.9028.

Question: And the Complete [2, 13]?
Answer: Its Complete is 1.184.

Question: And the Difference [2, 14]?
Answer: The Difference was 0.28.

Question: How did the “Cholesterol-free media + simvastatin (0.04 μM)” value [1, 7] turn out when `CNC(=O)c1ccc(N2C(=S)N(c3cnc(C#N)c(C(F)(F)F)c3)C(=O)C23CCC3)cc1F` [Apalutamide] was run?
Answer: The value was 1.113.

Question: And the “Complete Media” value [1, 8]?
Answer: The value was 1.082.

Question: What about the Difference [1, 9] of the same molecule?
Answer: The Difference was −0.03.

Question: What about the Cholesterol-free [2, 5] of the same molecule?
Answer: Its Cholesterol-free is 1.195.

Question: And the Complete ([2]; NCI-H292 cells, complete media)?
Answer: Its Complete is 0.8274.

Question: And the Difference [2, 6]?
Answer: The Difference was −0.37.

Question: With Tofacitinib (citrate) as the molecule, how does the “Cholesterol-free media + simvastatin (0.04 μM)” value ([1]; NCI-H292 cells, drug in cholesterol-free media with simvastatin 0.04 μM) read?
Answer: Its value is 0.9122.

Question: And the “Complete Media” value ([1]; NCI-H292 cells, drug in complete media)?
Answer: The value was 0.6806.

Question: And the Difference [1, 15]?
Answer: The Difference was −0.23.

Question: What about the Difference [2, 10] of the same molecule?
Answer: Its Difference is −0.26.

Question: And the Cholesterol-free [2, 5]?
Answer: Its Cholesterol-free is 0.8106.

Question: And the Complete ([2]; NCI-H292 cells, complete media)?
Answer: Its Complete is 0.5473.

Question: Which “Cholesterol-free media + simvastatin (0.04 μM)” value [1, 3] does the source give for Mosapride (citrate) here?
Answer: Its value is 0.963.

Question: And the “Complete Media” value [1, 11]?
Answer: Its value is 0.8629.

Question: And the Difference [1, 15]?
Answer: The Difference was −0.10.

Question: What about the Cholesterol-free [2, 12] of the same molecule?
Answer: The Cholesterol-free was 0.9953.

Question: And the Complete [2, 13]?
Answer: Its Complete is 1.241.

Question: What about the Difference [2, 14] of the same molecule?
Answer: The Difference was 0.25.

Question: Which “Cholesterol-free media + simvastatin (0.04 μM)” value [1] does the source give for `Cc1ncc(CNC(=O)N(CCCl)N=O)c(N)n1` [Nimustine (hydrochloride)] here?
Answer: Its value is 1.194.

Question: And the “Complete Media” value [1]?
Answer: The value was 1.026.

Question: And the Difference [1]?
Answer: Its Difference is −0.17.

Question: And the Cholesterol-free [2]?
Answer: Its Cholesterol-free is 1.02.

Question: What about the Complete [2] of the same molecule?
Answer: Its Complete is 1.016.

Question: What about the Difference [2] of the same molecule?
Answer: Its Difference is 0.00.

Question: For `CN(C)C(=O)c1cc2cnc(Nc3ccc(N4CCNCC4)cn3)nc2n1C1CCCC1` [Ribociclib], which “Cholesterol-free media + simvastatin (0.04 μM)” value ([1]; NCI-H292 cells, cholesterol-free media with simvastatin 0.04 μM, cell growth value in FDA drug screen) is on record?
Answer: Its value is 0.6195.

Question: What about the “Complete Media” value ([1]; NCI-H292 cells, complete media, cell growth value in FDA drug screen) of the same molecule?
Answer: The value was 0.7338.

Question: What about the Difference [1, 4] of the same molecule?
Answer: The Difference was 0.11.

Question: And the Difference [2, 10]?
Answer: Its Difference is −0.30.

Question: What about the Cholesterol-free [2, 5] of the same molecule?
Answer: Its Cholesterol-free is 1.15.

Question: What about the Complete ([2]; NCI-H292 cells, complete media) of the same molecule?
Answer: Its Complete is 0.8537.

Question: Which results are given for `Cc1nc(NC(=O)N2CCC[C@H]2C(N)=O)sc1-c1ccnc(C(C)(C)C(F)(F)F)c1` [Alpelisib]?
Answer: Cholesterol-free media + simvastatin (0.04 μM) [1, 7]: 0.5514; Complete Media [1, 8]: 0.5502; Difference [1, 9]: 0.00; Difference [2, 10]: 0.04; Cholesterol-free [2, 12]: 0.497; Complete [2, 13]: 0.5335

Question: With `CC(C)OC(=O)CCC/C=C\C[C@@H]1[C@@H](CC[C@@H](O)CCc2ccccc2)[C@H](O)C[C@@H]1O` [Latanoprost] as the molecule, how does the “Cholesterol-free media + simvastatin (0.04 μM)” value [1, 7] read?
Answer: Its value is 1.031.

Question: And the “Complete Media” value [1, 8]?
Answer: The value was 0.9769.

Question: And the Difference [1, 9]?
Answer: Its Difference is −0.05.

Question: What about the Difference [2, 16] of the same molecule?
Answer: Its Difference is −0.48.

Question: What about the Cholesterol-free [2, 17] of the same molecule?
Answer: Its Cholesterol-free is 1.483.

Question: And the Complete [2, 18]?
Answer: Its Complete is 1.005.

Question: With `CNC[C@H](O)c1cccc(O)c1` [Phenylephrine (hydrochloride)] as the molecule, how does the “Cholesterol-free media + simvastatin (0.04 μM)” value [1, 3] read?
Answer: The value was 2.302.

Question: And the Difference [1, 9]?
Answer: Its Difference is −1.21.

Question: And the Difference [2, 16]?
Answer: Its Difference is −0.61.

Question: What about the Cholesterol-free [2, 17] of the same molecule?
Answer: The Cholesterol-free was 1.371.

Question: What about the Complete [2, 18] of the same molecule?
Answer: The Complete was 0.7558.

Question: `Cc1cc(C(=O)NNCc2ccccc2)no1` [Isocarboxazid] was tested. Which “Cholesterol-free media + simvastatin (0.04 μM)” value [1, 7] did it give?
Answer: Its value is 1.551.

Question: What about the “Complete Media” value [1, 8] of the same molecule?
Answer: Its value is 1.506.

Question: What about the Difference [1, 9] of the same molecule?
Answer: The Difference was −0.05.

Question: What about the Cholesterol-free [2, 12] of the same molecule?
Answer: Its Cholesterol-free is 0.685.

Question: What about the Complete [2, 13] of the same molecule?
Answer: The Complete was 1.428.

Question: And the Difference [2, 14]?
Answer: Its Difference is 0.74.
